Measurements published in article PMC11191602, “A novel and selective fluorescent ligand for the study of adenosine A2B receptors” (Pharmacology Research & Perspectives, 2024).

Molecular target: T1, endogenous A2BR (Homo sapiens, UniProt P29275)
T1 construct: HEK293G cells that express the cAMP biosensor Glosensor also endogenously express both A2BR and A2AR; host or cells: HEK293G
T1 sequence (P29275 1-332): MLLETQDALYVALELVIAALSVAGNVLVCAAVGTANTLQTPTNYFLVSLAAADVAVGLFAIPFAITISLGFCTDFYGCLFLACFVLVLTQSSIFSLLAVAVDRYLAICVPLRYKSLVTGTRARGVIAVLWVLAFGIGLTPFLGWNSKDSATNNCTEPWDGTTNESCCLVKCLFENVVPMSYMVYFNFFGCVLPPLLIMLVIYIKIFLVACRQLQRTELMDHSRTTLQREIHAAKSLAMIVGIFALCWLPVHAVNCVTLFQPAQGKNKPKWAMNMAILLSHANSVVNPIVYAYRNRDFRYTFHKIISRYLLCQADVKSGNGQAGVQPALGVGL
Experiment: cAMP GloSensor luminescence assay in HEK293G cells endogenously expressing A2BR
Assay type: cell-based
Details: 20 nM and 200 nM PSB603‐BY630, endogenous A2BR
Protocol: The cAMP GloSensor™ luminescence assay was performed according to the manufacturer's instructions (Promega Corporation, Madison, WI, USA). Briefly, after 24 h incubation at 37°C and 5% CO2 after cell plating (40 000 cells/well in 100 μL), medium was aspirated from each well of the 96‐well plate. Cells were incubated in 50 μL HEPES buffered saline solution (HBSS; 2 mM sodium pyruvate, 145 mM NaCl, 10 mM D‐glucose, 5 mM KCl, 1 mM MgSO4.7H2O, 10 mM HEPES, 1.3 mM CaCl2, 1.5 mM NaHCO3 in double‐distilled water, pH 7.45) containing 3% GloSensor™ cAMP reagent at 37°C for 1.5 h. For agonist studies, an initial baseline luminescence read was made at time zero, the plate was then removed from the plate‐reader and a further 50 μL HBSS containing agonist (2× final concentration) or HBSS (vehicle control) added. Luminescence was measured on an open channel (gain of 3600) immediately after these additions, and then continuously over 60 min, reading each well once every minute, by a PHERAstar FSX microplate reader (BMG Labtech, Offenburg, Germany) at 37°C. Increases in luminescence are indicative of intracellular cAMP accumulation, thus the temporal changes in relative cytosolic cAMP concentration were measured upon agonist or vehicle addition. Antagonist action was determined following 30 min pre‐incubation of HBSS in the presence of 20 and 200 nM PSB603‐BY630 and read as above. All conditions were performed in triplicates within each plate.

## CCCn1c(=O)[nH]c2[nH]c(-c3ccc(S(=O)(=O)N4CCN(c5ccc(OCCNC(=O)CCCCCNC(=O)COc6ccc(/C=C/C7=[N+]8C(=Cc9ccc(-c%10cccs%10)n9[B-]8(F)F)C=C7)cc6)cc5)CC4)cc3)nc2c1=O [PSB603‐BY630]
  effect on cAMP concentration‐response curve to BAY 60–6583: concentration‐dependent reduction in the maximal response to BAY 60–6583 without altering the EC50
